Test results from patent US11958830B2, “Protease inhibitors, preparation, and uses thereof” (WESTLAKE PHARMACEUTICALS (HANGZHOU) CO., LTD., priority 2021, dated 2024).
pIC50: −log10 of the molar value.

What was measured:
SARS-CoV-2 3CLpro = target: T1, SARS-CoV-2 3CLpro (Severe acute respiratory syndrome coronavirus 2, UniProt P0DTD1); assay: FRET-based continuous kinetic enzymatic assay of 3CLpro; assay type: biochemical; conditions: 100 nM 3CLpro, 100 μM fluorogenic substrate, 1 hour pre-incubation, 30° C.; read-out: IC50 against SARS-CoV-2 3CLpro
T1 construct: made in house; host or cells: E. coli

SARS-CoV-2 = assay: microbe, parasite or virus in culture; assay type: cell-based; conditions: Severe acute respiratory syndrome coronavirus 2, A549, read-out: IC50, anti-SARS-CoV-2 activity in A549 cells

Compound: CNC(=O)c1cc(Br)cc([N+](=O)[O-])c1N1CC[C@@]2(CN(C(=O)c3cncc4cc(O)ccc34)C[C@@H]2c2ccccc2)C1 [Compound 8]
- pIC50 (SARS-CoV-2 3CLpro): 7.31
- pIC50 (SARS-CoV-2): 7.41

Compound: CNC(=O)[C@@H](Cc1cccc(F)c1)NC(=O)C1CN(C(=O)c2cncc3cccc(O)c23)CCN1Cc1ccc(Cl)cc1Cl (stereo partly shown) [Compound 1]
- pIC50 (SARS-CoV-2 3CLpro): 6.78
- pIC50 (SARS-CoV-2): 6.07
